# Where two headings read alike, the source gives them in different places.
# Legend:
# P. falciparum K1 strain = test: Antiplasmodial activity against resistant P. falciparum K1; format: cell-based; conditions: Plasmodium falciparum
# P. falciparum 3D7 clone = test: Ex vivo schizont maturation assay, 3D7 laboratory strain control; format: cell-based; conditions: Plasmodium falciparum, ex vivo assay conditions
# [1] = system: P. falciparum (3D7 strain) digestive vacuole; test: Digestive vacuole homeostasis, acridine orange fluorescence; format: cell-based, Plasmodium falciparum; conditions: 10 μM, 3 min treatment, isolated parasites
# Method: The sample was incubated for 40 min at 37 °C. […] Fluorescence was measured in a Hitachi F-7000 fluorimeter (Tokyo, Japan) by continuous measurement of the fluorescence (λex = 488 nm; λem = 560 nm) at 37 °C. Experiments were performed in triplicate.
# [2] = Human liver microsome stability; format: in vitro ADME; conditions: human, pooled human liver microsomes, human microsomal intrinsic clearance; read-out: hMics, human microsome Clint
# Method: A solution of the test compounds in phosphate buffer solution (1 μM) was incubated in pooled human or mouse liver microsomes (0.5 mg/mL) for 0, 5, 20, 30, 45, and 60 min at 37 °C in the presence and absence of an NADPH regeneration system (NRS). The tests were conducted by […], India. The reaction was terminated with the addition of ice-cold acetonitrile, containing a […] standard, at designated time points. The sample was centrifuged (4200g) for 20 min at 20 °C and the supernatant was diluted by half in water and then analyzed by LC-MS/MS. The % parent compound remaining, half-life (t 1/2) and clearance (CLint) were calculated using standard methodology. The experiment was carried out in duplicate. Verapamil, diltiazem, phenacetin, and imipramine were used as reference standards.
# [3] = system: male P. falciparum gametocytes; test: P. falciparum dual gamete formation assay (Pf DGFA), male gametocytes; format: cell-based; conditions: Plasmodium falciparum, read-out: inhibition against male gametocytes
# [4] = system: P. falciparum 3D7 strain (Pf3D7); test: Antiplasmodial activity against P. falciparum 3D7 blood-stage parasites (SYBR Green, 72 h); format: cell-based, Plasmodium falciparum; conditions: Plasmodium falciparum
# [5] = eLogD at pH 7.4, miniaturized shake flask method; format: physicochemical; conditions: 1-octanol/PBS (1:1, v/v), pH 7.4, pH 7.4, miniaturized shake flask method
# Method: eLogD at pH 7.4 was determined using a miniaturized shake flask method. A solution of a presaturated mixture of 1-octanol and phosphate-buffered saline (PBS) (1:1, v/v) and the test compound (75 μM) was incubated at 25 °C with constant shaking (850 rpm) for 2h. After incubation, the organic and aqueous phases were separated, and samples of each phase were transferred to a plate for dilution. […] The samples were quantitated using LC-MS/MS. The experiment was carried out in duplicate. Propranolol, Amitriptyline, and Midazolam were used as reference standards.
# [6] = Kinetic solubility at pH 7.4; format: physicochemical; conditions: phosphate-buffered saline, 25 °C, pH 7.4, aqueous buffer, kinetic from dmso stock; read-out: Kinetic solubility (Sol)
# Method: Kinetic solubility assay was performed using UV–vis detection. […] The samples were filtered using a multiscreen solubility filter plate. The filtrate was diluted by 50% with MeCN. A five-point linearity curve was prepared in PBS/MeCN (1:1, v/v) at 200, 150, 75, 25, and 2.5 μM. Blank, linearity, and test samples (n = 2) were transferred to a UV-readable plate, and the plate was scanned for absorbance. Best-fit calibration curves were constructed using the calibration standards and used to determine the test sample solubility. The experiment was carried out in duplicate. Diethylstilbestrol, Haloperidol, and Diclofenac Sodium were used as reference standards.
# [7] = system: P. vivax field isolates from Brazil; test: Ex vivo drug susceptibility of P. vivax field isolates; format: cell-based; conditions: Plasmodium vivax, ex vivo
# [8] = system: P. falciparum field isolates from Brazil; test: Ex vivo drug susceptibility of P. falciparum field isolates; format: cell-based, Plasmodium falciparum
# P. falciparum 7G8 strain = test: Antiplasmodial activity against resistant P. falciparum 7G8; format: cell-based; conditions: Plasmodium falciparum; resistant strain 7G8; read-out: IC50 ± SD, 7G8
# P. falciparum Dd2 strain = test: Antiplasmodial activity against resistant P. falciparum Dd2; format: cell-based; conditions: Plasmodium falciparum
# [9] = system: P. falciparum TM90-2CB strain; test: Antiplasmodial activity against resistant P. falciparum TM90-2CB; format: cell-based; conditions: Plasmodium falciparum; resistant strain TM90-2CB; read-out: IC50 ± SD, TM90-2CB
# [10] = Resazurin assay for cytotoxicity in HepG2 cells; format: cell-based, human; conditions: human, HepG2 cells; HepG2 cell line, 72 h, resazurin
# Method: HepG2 cells were trypsinized, counted, and distributed in a 96-well plate at a density of 30,000 cells per well (180 μL). The plate was incubated at 37 °C and 5% CO2 for 24 h. Following incubation, 20 μL of serial dilutions of the tested compounds were added to the wells, with concentrations ranging from 30 to 0.47 μM. The plate was incubated for an additional 72 h at 37 °C and 5% CO2. Untreated cells served as positive controls, while wells containing only medium were used as negative controls. Postincubation, microscopy was employed to determine the highest compound concentration for treatment results. […] Concentration–response curves were generated, and half-maximal inhibitory concentration (CC50) values were determined using nonlinear regression analysis.
# Rat hepatocyte stability = format: in vitro ADME; conditions: rat hepatocyte stability
# Method: The reaction was terminated with the addition of ice-cold MeCN at designated time points. The samples were then centrifuged (4200 rpm) for 20 min at 20 °C, and the supernatant was half diluted in water and then analyzed using LCMS/MS. The % parent compound remaining, half-life (t 1/2), and clearance (CLint) were calculated using standard methodology. The experiment was carried out in duplicate. Diltiazem, 7-Ethoxy Coumarin, Propranolol, and Midazolam were used as reference standards.
# [11] = system: P. falciparum Dd2 (chloroquine resistance); test: Effect of verapamil on inhibitory activity in P. falciparum Dd2; format: cell-based; conditions: Plasmodium falciparum; Dd2, absence of verapamil; read-out: IC50^Dd2 (without VP)
# [12] = system: P. falciparum 3D7 (chloroquine-sensitive); test: Effect of verapamil on inhibitory activity in P. falciparum 3D7; format: cell-based; conditions: Plasmodium falciparum
# [13] = system: P. falciparum NF54 strain; test: Antiplasmodial activity against P. falciparum NF54 (SYBR Green, 72 h); format: cell-based, Plasmodium falciparum; conditions: Plasmodium falciparum, NF54, drug-sensitive NF54, strain panel; read-out: IC50 ± SD, NF54
# [14] = system: synchronized P. falciparum parasites (3D7 strain); test: P. falciparum asexual blood stage-specificity assay (8 h exposures); format: cell-based, Plasmodium falciparum
# [15] = system: P. falciparum RF12 strain; test: Antiplasmodial activity against resistant P. falciparum RF12; format: cell-based; conditions: Plasmodium falciparum, read-out: IC50 ± SD, RF12
# [16] = system: female P. falciparum gametocytes; test: P. falciparum dual gamete formation assay (Pf DGFA), female gametocytes; format: cell-based; conditions: Plasmodium falciparum, read-out: inhibition against female gametocytes
smiles,measurement,setting,value
"O=C(c1cc2cc(C(F)(F)F)ccc2[nH]1)N(Cc1cccnc1)CC1CCNC1 (stereo not shown) [Compound 6f, N-(3-Pyridylmethyl)-N-(pyrrolidin-3-ylmethyl)-5-(trifluoromethyl)-1H-indole-2-carboxamide]",IC50,"P. falciparum K1 strain; 3D7 / K1, resistant K1, in parallel with 3D7, read-out: IC50^K1 ± SD",4.5 ± 0.2 µM
same,IC50,"P. falciparum K1 strain; resistant strain K1, strain panel, read-out: IC50 ± SD, K1",7.3 ± 0.2 µM
same,EC50,"P. falciparum 3D7 clone; 3D7, read-out: EC50 against the P. falciparum 3D7 clone",0.363 µM
same,IC50,"P. falciparum 3D7 clone; 3D7 control, read-out: P. falciparum 3D7 IC50",0.363 µM
same,effect on digestive vacuole H+ homeostasis (acridine orange fluorescence),[1],interferes with proton (H^+) homeostasis
same,microsomal CLint at 1 μM,[2],11 µL/min/mg
same,inhibition at 1 µM,[3],28%
same,IC50,"[4]; 3D7, 72 h, 3D7 strain, 72 h, SYBR Green, read-out: Pf3D7-IC50",0.4 ± 0.1 µM
same,IC50,"[4]; 3D7, drug-sensitive 3D7, strain panel, read-out: IC50 ± SD, 3D7",0.4 ± 0.1 µM
same,IC50,"[4]; 3D7 / DD2, sensitive 3D7, in parallel with K1 and Dd2, read-out: IC50^3D7 ± SD",0.4 ± 0.2 µM
same,logD at 2 h,[5],1.1
same,solubility kinetic at 2 h,[6],195 µM
same,IC50,"[7]; 9 clinical isolates, read-out: median IC50 (range), P. vivax (9)",0.698 µM
same,EC50,[7]; read-out: median EC50 against P. vivax field isolates,0.698 µM
same,EC50,[7]; read-out: range of EC50 across individual P. vivax isolates,0.636 to 0.91 µM
same,IC50,"[8]; Plasmodium falciparum, 7 clinical isolates, ex vivo, read-out: median IC50 (range), P. falciparum (7)",> 10 µM
same,activity against P. falciparum field isolates,[8]; concentration of 10 μM,inactive
same,IC50,P. falciparum 7G8 strain,1.8 ± 0.3 µM
same,IC50,"P. falciparum Dd2 strain; 3D7 / DD2, resistant Dd2, in parallel with 3D7, read-out: IC50^Dd2 ± SD",> 10 µM
same,IC50,"P. falciparum Dd2 strain; resistant strain Dd2, strain panel, read-out: IC50 ± SD, Dd2",2.6 ± 0.4 µM
same,IC50,[9],2.8 ± 0.5 µM
same,CC50 at 72 h,[10],> 30 µM
same,R Heps (Clint),Rat hepatocyte stability,2.6 μL/min/10^6
same,IC50,[11],4.03 µM
same,IC50,"[12]; 3D7, verapamil experiment, read-out: IC50 in 3D7 strain",~0.2 µM
same,IC50,"[12]; read-out: IC50^3D7 (10 μM VP), 3D7, presence of 10 μM verapamil",0.46 µM
same,IC50,"[12]; 3D7, absence of verapamil, read-out: IC50^3D7 (without VP)",0.196 µM
same,IC50,[13],0.37 ± 0.06 µM
same,timing of peak activity (lowest IC50^8h) in asexual blood stages,[14],increased potency on the early ring forms
same,IC50,[15],2 ± 0.3 µM
same,inhibition at 1 µM,[16],7%

# Reference: PMC12531871, “Indole-2-carboxamides Optimization for Antiplasmodial Activity” (ACS Bio & Med Chem Au, 2025)
